# Measured values: US20240034736A1, “HSD17B13 INHIBITORS AND USES THEREOF” (FL2022-001, Inc., priority 2020, published 2024)
# Molecular target: Recombinant human HSD17B13 enzyme (Homo sapiens (Human), UniProt Q7Z5P4)
# Test: HSD17b13 NAD(P)H-Glo Biochemical Assay
# Details: 50 uM estradiol, 1 mM NAD+; read-out: HSD17β13 IC50
# Method in brief: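 Recombinant human HSD17B13 was pre-incubated with inhibitor for 20 min at RT in 20 mM Tris pH 7.4 with 0.002% Tween-20 and 0.02% BSA. Reaction then ran with 50 uM estradiol and 1 mM NAD+ (final) for 3 h at 37° C. NADH formed was detected by NAD(P)H-Glo luminescence after 1 h at RT.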
# Chain of Recombinant human HSD17B13 enzyme (Q7Z5P4 20-300): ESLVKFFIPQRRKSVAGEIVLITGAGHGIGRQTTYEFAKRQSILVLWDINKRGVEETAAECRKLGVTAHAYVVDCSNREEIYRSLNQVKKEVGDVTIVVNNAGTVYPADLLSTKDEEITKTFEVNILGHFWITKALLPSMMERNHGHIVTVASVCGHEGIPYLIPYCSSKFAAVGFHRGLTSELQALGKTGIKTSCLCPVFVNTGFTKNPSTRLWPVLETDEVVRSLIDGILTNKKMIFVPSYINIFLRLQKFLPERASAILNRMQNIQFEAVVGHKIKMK
row,SMILES,IC50
1,"Cc1nn(-c2nc(C(F)(F)F)c(F)c(O)c2F)c2cnc(N3CCOCC34CC4)cc12 [Compound 19.119, 3,5-Difluoro-2-(3-methyl-5-(7-oxa-4-azaspiro[2.5]octan-4-yl)-1H-pyrazolo[3,4-c]pyridin-1-yl)-6-(trifluoromethyl)pyridin-4-ol]",1 to 30 µM
2,"CS(=O)(=O)N1CCC(C#N)(c2ccc3c(cnn3-c3cc(O)c(F)c(F)c3)c2)CC1 [Compound 28.04, 4-(1-(3,4-Difluoro-5-hydroxy-phenyl)-1H-indazol-5-yl)-1-(methylsulfonyl)piperidine-4-carbonitrile]",1 to 30 µM
3,"CCc1nn(-c2cc(C(F)(F)F)c(F)c(O)c2F)c2ccc(N(C)C3CCOCC3)cc12 [Compound 19.73, 3-(3-Ethyl-5-(methyl(tetrahydro-2H-pyran-4-yl)amino)-1H-indazol-1-yl)-2,6-difluoro-5-(trifluoromethyl)phenol]",0.1 to 1 µM
4,"Cc1n[nH]c(C)c1-c1ccc2c(cnn2-c2ccc(F)c(O)c2)c1 [Compound 5.17, 5-(5-(3,5-Dimethyl-1H-pyrazol-4-yl)-1H-indazol-1-yl)-2-fluorophenol]",0.1 to 1 µM
5,"CS(=O)(=O)N1CCN(c2cc3c(F)nn(-c4cc(O)c(F)c(C(F)(F)F)c4)c3cn2)CC1 [Compound 21.53, 2-Fluoro-5-(3-fluoro-5-(4-(methylsulfonyl)piperazin-1-yl)-1H-pyrazolo[3,4-c]pyridin-1-yl)-3-(trifluoromethyl)phenol]",< 0.1 µM
6,"CCCCCOc1ncc2c(n1)c(C)nn2-c1cc(C(F)(F)F)c(F)c(O)c1F [Compound 19.117, 2,6-Difluoro-3-(3-methyl-5-(pentyloxy)-1H-pyrazolo[4,3-d]pyrimidin-1-yl)-5-(trifluoromethyl)phenol]",0.1 to 1 µM
7,"Oc1ccc(-c2ccc3c(cnn3-c3cc(O)c(F)c(C(F)(F)F)c3)c2)cc1Cl [Compound 1.04, 5-(5-(3-Chloro-4-hydroxyphenyl)-1H-indazol-1-yl)-2-fluoro-3-(trifluoromethyl)phenol]",< 0.1 µM
8,"O=C(O)c1ccc(-c2ccc3c(cnn3-c3ccc(F)c(O)c3)c2)c(Cl)c1 [Compound 12, 3-Chloro-4-(1-(4-Fluoro-3-hydroxyphenyl)-1H-indazol-5-yl)benzoic acid]",1 to 30 µM
9,"CC(C)S(=O)(=O)NC1CN(c2cc3cnn(-c4cc(O)c(F)c(F)c4)c3cc2Cl)C1 [Compound 21.33, N-(1-(6-Chloro-1-(3,4-difluoro-5-hydroxyphenyl)-1H-indazol-5-yl)azetidin-3-yl)propane-2-sulfonamide]",0.1 to 1 µM
10,"CC1(C)CN(S(C)(=O)=O)CCN1c1ccc2c(cnn2-c2cc(O)c(F)c(C(F)(F)F)c2)c1 [Compound 21.48, 5-(5-(2,2-Dimethyl-4-(methyl-sulfonyl)piperazin-1-yl)-1H-indazol-1-yl)-2-fluoro-3-(trifluoromethyl)phenol]",1 to 30 µM
11,"CS(=O)(=O)N1CCN(c2cc3cnn(-c4cc(C(F)(F)F)c(F)c(O)c4F)c3cn2)CC1 [Compound 19.38, 2,6-Difluoro-3-(5-(4-(methylsulfonyl)piperazin-1-yl)-1H-pyrazolo[3,4-c]pyridine-1-yl)-5-(trifluoromethyl)phenol]",0.1 to 1 µM
12,"CS(=O)(=O)N1CCN(c2cc3cnn(-c4cc(O)c(F)c(F)c4)c3cc2C#N)CC1 [Compound 21.23, 1-(3,4-Difluoro-5-hydroxy-phenyl)-5-(4-(methylsulfonyl)-piperazin-1-yl)-1H-indazole-6-carbonitrile]",0.1 to 1 µM
13,"CS(=O)(=O)N1CCC(c2ccc3c(cnn3-c3ccc(F)c(O)c3)c2)CC1 [Compound 26.01, 2-Fluoro-5-(5-(1-(methyl-sulfonyl)piperidin-4-yl)-1H-indazol-1-yl)phenol]",1 to 30 µM
14,"CS(=O)(=O)N1CCN(c2cc3cn(-c4ccc(Cl)c(O)c4)nc3cn2)CC1 [Compound 19.15, 2-Chloro-5-(5-(4-(methylsulfonyl)piperazin-1-yl)-2H-pyrazolo[3,4-c]pyridine-2-yl)phenol]",1 to 30 µM
15,"CS(=O)(=O)N1CCN(c2cc3cnn(-c4cc(O)c(F)cn4)c3cn2)CC1 [Compound 19.19, 5-Fluoro-2-(5-(4-(methylsulfonyl)piperazin-1-yl)-1H-pyrazolo[3,4-c]pyridine-1-yl)pyridine-4-ol]",1 to 30 µM
16,"O=S(=O)(Cc1ccccc1)N1CCN(c2ccc3c(cnn3-c3cc(O)c(F)c(F)c3)c2)CC1 [Compound 21.10, 5-(5-(4-(Benzylsulfonyl)-piperazin-1-yl)-1H-indazol-1-yl)-2,3-difluorophenol]",0.1 to 1 µM
17,"CS(=O)(=O)N1CCN(c2cc3cnn(-c4cccc(O)c4C#N)c3cn2)CC1 [Compound 19.39, 2-Hydroxy-6-(5-(4-(methylsulfonyl)piperazin-1-yl)-1H-pyrazolo[3,4-c]pyridine-1-yl)benzonitrile]",1 to 30 µM
18,"Oc1cc(-n2ncc3cc(N4CCOCC4)ncc32)cc(C(F)(F)F)c1F [Compound 21.57, 2-Fluoro-5-(5-morpholino-1H-pyrazolo[3,4-c]pyridin-1-yl)-3-(trifluoromethyl)phenol]",0.1 to 1 µM
19,"CS(=O)(=O)N1CCN(c2ccc3c(c2)c(C2CC2)nn3-c2cc(O)c(F)c(F)c2)CC1 [Compound 21.12, 5-(3-Cyclopropyl-5-(4-(meth-ylsulfonyl)piperazin-1-yl)-1H-indazol-1-yl)-2,3-difluoro-phenol]",1 to 30 µM

row,SMILES,IC50
1,"CC(=O)c1cc(-n2nc(C)c3cc(N4CCOCC45CC5)ncc32)cc(O)c1F [Compound 19.86, 1-(2-Fluoro-3-hydroxy-5-(3-methyl-5-(7-oxa-4-azaspiro[2.5]octan-4-yl)-1H-pyrazolo[3,4-c]pyridin-1-yl)phenyl)ethanone]",0.1 to 1 µM
2,"Oc1ccc(-c2ccc3c(cnn3-c3ccc(C(F)(F)F)c(O)c3)c2)cc1Cl [Compound 3.02, 2-Chloro-4-(1-(3-hydroxy-4-(trifluoromethyl)phenyl)-1H-indazol-5-yl)phenol]",1 to 30 µM
3,"Cc1nn(-c2cc(C(F)(F)F)c(F)c(O)c2F)c2cnc(N3CCN(S(C)(=O)=O)CC34CC4)nc12 [Compound 19.107, 2,6-Difluoro-3-(3-methyl-5-(7-(methylsulfonyl)-4,7-diazaspiro[2.5]octan-4-yl)-1H-pyrazolo[4,3-d]pyrimidin-1-yl)-5-(trifluoromethyl)phenol]",< 0.1 µM
4,"CS(=O)(=O)N1CCN(c2ccc3c(cnn3-c3cc(O)c(F)c(F)c3)c2)CC1 [Compound 21, 2,3-Difluoro-5-(5-(4-(methylsulfonyl)piperazin-1-yl)-1H-indazol-1-yl)phenol]",0.1 to 1 µM
5,"Cc1nn(-c2cc(O)c(F)c(C(N)=O)c2)c2cnc(N3CCOCC34CC4)cc12 [Compound 19.96, 2-Fluoro-3-hydroxy-5-(3-methyl-5-(7-oxa-4-azaspiro[2.5]octan-4-yl)-1H-pyrazolo[3,4-c]pyridin-1-yl)benzamide]",1 to 30 µM
6,"Cc1ccc(-n2ncc3cc(N4CCN(S(C)(=O)=O)CC4)ncc32)c(F)c1O [Compound 19.42, 2-Fluoro-6-methyl-3-(5-(4-(methylsulfonyl)piperazin-1-yl)-1H-pyrazolo[3,4-c]pyridine-1-yl)phenol]",1 to 30 µM
7,"Cc1nn(-c2cc(C(F)(F)F)c(F)c(O)c2F)c2cc(F)c(N3CCOCC34CC4)nc12 [Compound 19.50, 2,6-Difluoro-3-(6-fluoro-3-methyl-5-(7-oxa-4-azaspiro[2.5]octan-4-yl)-1H-pyrazolo[4,3-b]pyridine-1-yl)-5-(trifluoromethyl)phenol]",< 0.1 µM
8,"Oc1cc(-n2ncc3cc(-c4ccc(OC(F)(F)F)cc4Cl)ccc32)ccc1F [Compound 5.06, 5-(5-(2-Chloro-4-(trifluoromethoxy)phenyl)-1H-indazol-1-yl)-2-fluorophenol]",0.1 to 1 µM
9,"Cc1cc2c(cnn2-c2cc(O)c(F)c(F)c2)cc1N1CCN(S(C)(=O)=O)CC1 [Compound 21.11, 2,3-Difluoro-5-(6-methyl-5-(4-(methylsulfonyl)piperazin-1-yl)-1H-indazol-1-yl)phenol]",1 to 30 µM
10,"CS(=O)(=O)N1CCN(c2cc3cn(-c4ccc(F)c(O)c4)nc3cn2)CC1 [Compound 19.10, 2-Fluoro-5-(5-(4-(methylsulfonyl)piperazin-1-yl)-2H-pyrazolo[3,4-c]pyridine-2-yl)phenol]",1 to 30 µM
11,"Cc1cc(-c2ccc3c(cnn3-c3ccc(F)c(O)c3)c2)ccc1O [Compound 5.02, 4-(1-(4-Fluoro-3-hydroxyphenyl)-1H-indazol-5-yl)-2-methylphenol]",0.1 to 1 µM
12,"NS(=O)(=O)c1ccc(-c2ccc3c(cnn3-c3ccc(F)c(O)c3)c2)cc1 [Compound 5.04, 4-(1-(4-Fluoro-3-hydroxyphenyl)-1H-indazol-5-yl)benzenesulfonamide]",0.1 to 1 µM
13,"O=C(O)c1cccc(-c2ccc3c(cnn3-c3ccc(F)c(O)c3)c2)c1 [Compound 5.24, 3-(1-(4-Fluoro-3-hydroxyphenyl)-1H-indazol-5-yl)benzoic acid]",1 to 30 µM
14,"Cc1cc(-n2ncc3cc(N4CCN(S(C)(=O)=O)CC4)ncc32)c(F)c(O)c1F [Compound 19.28, 2,6-Difluoro-3-methyl-5-(5-(4-(methylsulfonyl)piperazin-1-yl)-1H-pyrazolo[3,4-c]pyridine-1-yl)phenol]",1 to 30 µM
15,"Oc1ccc(-c2ccc3c(cnn3-c3cc(O)c(F)c(F)c3)c2)cn1 [Compound 16.03, 5-(1-(3,4-Difluoro-5-hydroxyphenyl)-1H-indazol-5-yl)pyridine-2-ol]",0.1 to 1 µM
16,"Oc1ccc(-c2ccc3c(cnn3-c3ccc(F)c(O)c3)c2)cc1 [Compound 4.01, 2-Fluoro-5-(5-(4-hydroxyphenyl)-1H-indazol-1-yl)phenol]",0.1 to 1 µM
17,"CC(C)S(=O)(=O)N1CCN(c2cc3cnn(-c4cc(O)c(F)c(F)c4)c3cc2Cl)CC1 [Compound 21.28, 5-(6-Chloro-5-(4-(isopropyl-sulfonyl)piperazin-1-yl)-1H-indazol-1-yl)-2,3-difluoro-phenol]",0.1 to 1 µM
18,"Oc1cc(-n2ncc3cc(N4CCOCC45CC5)ncc32)cc(C(F)(F)F)c1F [Compound 21.54, 5-(5-(7-Oxa-4-azaspiro[2.5]-octan-4-yl)-1H-pyrazolo[3,4-c]pyridin-1-yl)-2-fluoro-3-(trifluoromethyl)phenol]",0.1 to 1 µM
